Tested on: Anguilla japonica leptocephali
Experiment: Induction of Anguilla japonica metamorphosis by T4 treatment in 23° C. breeding water
Assay type: in vivo
Design: key: L: During life, no characteristics of metamorphosis seen.; Stage 1: Starting phase of metamorphosis. The rostral end is rounded, and intestinal degeneration starts.; Stage 2: Peak phase of metamorphosis. Intestinal degeneration becomes pronounced.; Stage 3: Late phase of metamorphosis.; Stage 4: Pre-glass eel stage. Almost the eel form, but the body height still remains
Source text: Stage 1: Starting phase of metamorphosis. The rostral end is rounded, and intestinal degeneration starts.
Stage 2: Peak phase of metamorphosis. Intestinal degeneration becomes pronounced. In the second half, the anus reaches to near the last vertical blood vessel (VBV last).
Stage 3: Late phase of metamorphosis. The preanal length (PAL) becomes equal to or shorter than the last vertical blood vessel length (VBV last Length) (PAL VBV last Length). The body height is apparently low.
Stage 4: Pre-glass eel stage. Almost the eel form, but the body height still remains. Melanophores on the body surface or endogenous melanophores are not yet seen.
Elver stage: Juvenile stage. Food intake can be identified.
A thyroid hormone (e.g., thyroxine (T4)) is adjusted to 50 to 100 mM in a 1- to 2-mL volume messflask. As a solvent, known solvents (water, alcohol) can be used. Ethanol is preferably used as the solvent.
For example, using ethanol as a solvent, T4 adjusted to 50 mM is diluted 500-fold, 5,000-fold, and 50,000-fold, respectively, and adjusted to […], 1 μM, and 100 nM. A feed can be prepared in this manner.
Artificial seawater is added to a breeding vessel, and 1/1000 of the […] T4 is added to prepare […] T4 breeding water.
Half of the breeding water is replaced every two days with breeding water of the same concentration. In the case where the concentration is changed, for example, in the case of changing from 10 nM to 2 nM, 80% to the breeding water is removed, and unadjusted artificial seawater is newly added to make 1 L.
Leptocephali visually considered to have reached a total length of 40 mm (or may be 30 mm to 50 mm, may be 35 mm to 45 mm, or may also be 35 mm or more, 40 mm or more, or 45 mm or more) are selected, anesthetized with 2-phenoxyethanol, and then photographed, and the total length of each larva is measured using an image analyzing device.
The larvae are placed in 10 nM T4 breeding water and then placed in an incubator set at 23° C., and breeding is started. In first one week, observation is performed every two days, and half of the 10 nM T4 breeding water is replaced each time. The average amount of thyroid hormone in the breeding water in stage 1 is 1 nM to 100 nM, for example, and may also be 3 nM to 30 nM, or 5 nM to 20 nM.
For larvae visually judged to have reached the second half of stage 2, the concentration of the breeding water is changed. The breeding water is diluted 5-fold or 10-fold and adjusted to 2 nM or 1 nM T4, and breeding is continued. The average amount of thyroid hormone in the breeding water in stage 2 may be, as compared with the breeding water of stage 1, diluted 2-fold to 20-fold, diluted 3 to 15-fold, or diluted 5 to 10-fold as described above. The average amount of thyroid hormone in the breeding water in stage 2 is 0.1 nM to 20 nM, for example, and may also be 0.5 nM to 10 nM, 1 nM to 5 nM, or 1 nM to 2 nM.
For larvae visually judged to have reached stage 3, the breeding water is quickly changed 0.2 nM T4 breeding water, which is a 5-fold dilution of 1 nM T4 breeding water, and further changed to 0.1 nM T4 breeding water on the following day. […] Also, in larvae whose anus position has not reached the last vertical hemal spine, when they are judged to be on the brink of stage 3, the concentration is changed as above. The average amount of thyroid hormone in the breeding water in stage 3 may be, as compared with the breeding water of stage 2, diluted 2-fold to 50-fold, diluted 3 to 15-fold, diluted 4 to 6-fold, or diluted 5-fold as described above. The average amount of thyroid hormone in the breeding water in stage 3 is 0.01 nM to 2 nM, for example, and may also be 0.05 nM to 1 nM, 0.1 nM to 0.5 nM, or 0.1 nM to 0.2 nM. […] That is, the concentration may be changed such that the thyroid hormone becomes undetectable in the breeding water in the course of stage 3.
In stage 3, breeding is continuously performed in the 0.1 nM T4 breeding water. […]

Measured: metamorphosis stage

N[C@@H](Cc1cc(I)c(Oc2cc(I)c(O)c(I)c2)c(I)c1)C(=O)O [T4, thyroxine]
L: individual Exp. 6-1, 129 days old, total length 40.6 mm at start, c3 onward = treatment days 1,3,5,7,9,10,11,12,13,14,15,16,17,18,19, T4 (nM) 10,10,10,10,2,1,0.2,0.1,0.1,0.1,0.1,0.1,0.1,0.1,0.1, treatment day 1
4: individual Exp. 5-6, 174 days old, total length 34.5 mm at start, c3 onward = treatment days 1,3,5,7,8,9,10,11,12,13,14,15,16,17,18,20,22, T4 (nM) 10,10,10,10,10,10,10,2,1,1,0.2,0.1,0.1,0.1,0.1,0.1,0.1, treatment day 22, T4 0.1 nM | individual Exp. 6-1, 129 days old, total length 40.6 mm at start, c3 onward = treatment days 1,3,5,7,9,10,11,12,13,14,15,16,17,18,19, T4 (nM) 10,10,10,10,2,1,0.2,0.1,0.1,0.1,0.1,0.1,0.1,0.1,0.1, treatment day 19
1: individual Exp. 6-1, 129 days old, total length 40.6 mm at start, c3 onward = treatment days 1,3,5,7,9,10,11,12,13,14,15,16,17,18,19, T4 (nM) 10,10,10,10,2,1,0.2,0.1,0.1,0.1,0.1,0.1,0.1,0.1,0.1, treatment day 3 | individual Exp. 6-1, 129 days old, total length 40.6 mm at start, c3 onward = treatment days 1,3,5,7,9,10,11,12,13,14,15,16,17,18,19, T4 (nM) 10,10,10,10,2,1,0.2,0.1,0.1,0.1,0.1,0.1,0.1,0.1,0.1, treatment day 5
2: individual Exp. 5-6, 174 days old, total length 34.5 mm at start, c3 onward = treatment days 1,3,5,7,8,9,10,11,12,13,14,15,16,17,18,20,22, T4 (nM) 10,10,10,10,10,10,10,2,1,1,0.2,0.1,0.1,0.1,0.1,0.1,0.1, treatment day 11, T4 2 nM | individual Exp. 5-6, 174 days old, total length 34.5 mm at start, c3 onward = treatment days 1,3,5,7,8,9,10,11,12,13,14,15,16,17,18,20,22, T4 (nM) 10,10,10,10,10,10,10,2,1,1,0.2,0.1,0.1,0.1,0.1,0.1,0.1, treatment day 12, T4 1 nM | individual Exp. 5-6, 174 days old, total length 34.5 mm at start, c3 onward = treatment days 1,3,5,7,8,9,10,11,12,13,14,15,16,17,18,20,22, T4 (nM) 10,10,10,10,10,10,10,2,1,1,0.2,0.1,0.1,0.1,0.1,0.1,0.1, treatment day 13, T4 1 nM | individual Exp. 6-1, 129 days old, total length 40.6 mm at start, c3 onward = treatment days 1,3,5,7,9,10,11,12,13,14,15,16,17,18,19, T4 (nM) 10,10,10,10,2,1,0.2,0.1,0.1,0.1,0.1,0.1,0.1,0.1,0.1, treatment day 7 | individual Exp. 6-1, 129 days old, total length 40.6 mm at start, c3 onward = treatment days 1,3,5,7,9,10,11,12,13,14,15,16,17,18,19, T4 (nM) 10,10,10,10,2,1,0.2,0.1,0.1,0.1,0.1,0.1,0.1,0.1,0.1, treatment day 9 | individual Exp. 6-1, 129 days old, total length 40.6 mm at start, c3 onward = treatment days 1,3,5,7,9,10,11,12,13,14,15,16,17,18,19, T4 (nM) 10,10,10,10,2,1,0.2,0.1,0.1,0.1,0.1,0.1,0.1,0.1,0.1, treatment day 10
3: individual Exp. 5-6, 174 days old, total length 34.5 mm at start, c3 onward = treatment days 1,3,5,7,8,9,10,11,12,13,14,15,16,17,18,20,22, T4 (nM) 10,10,10,10,10,10,10,2,1,1,0.2,0.1,0.1,0.1,0.1,0.1,0.1, treatment day 14, T4 0.2 nM | individual Exp. 5-6, 174 days old, total length 34.5 mm at start, c3 onward = treatment days 1,3,5,7,8,9,10,11,12,13,14,15,16,17,18,20,22, T4 (nM) 10,10,10,10,10,10,10,2,1,1,0.2,0.1,0.1,0.1,0.1,0.1,0.1, treatment day 15, T4 0.1 nM | individual Exp. 5-6, 174 days old, total length 34.5 mm at start, c3 onward = treatment days 1,3,5,7,8,9,10,11,12,13,14,15,16,17,18,20,22, T4 (nM) 10,10,10,10,10,10,10,2,1,1,0.2,0.1,0.1,0.1,0.1,0.1,0.1, treatment day 16, T4 0.1 nM | individual Exp. 5-6, 174 days old, total length 34.5 mm at start, c3 onward = treatment days 1,3,5,7,8,9,10,11,12,13,14,15,16,17,18,20,22, T4 (nM) 10,10,10,10,10,10,10,2,1,1,0.2,0.1,0.1,0.1,0.1,0.1,0.1, treatment day 17, T4 0.1 nM | individual Exp. 5-6, 174 days old, total length 34.5 mm at start, c3 onward = treatment days 1,3,5,7,8,9,10,11,12,13,14,15,16,17,18,20,22, T4 (nM) 10,10,10,10,10,10,10,2,1,1,0.2,0.1,0.1,0.1,0.1,0.1,0.1, treatment day 18, T4 0.1 nM | individual Exp. 5-6, 174 days old, total length 34.5 mm at start, c3 onward = treatment days 1,3,5,7,8,9,10,11,12,13,14,15,16,17,18,20,22, T4 (nM) 10,10,10,10,10,10,10,2,1,1,0.2,0.1,0.1,0.1,0.1,0.1,0.1, treatment day 20, T4 0.1 nM | individual Exp. 6-1, 129 days old, total length 40.6 mm at start, c3 onward = treatment days 1,3,5,7,9,10,11,12,13,14,15,16,17,18,19, T4 (nM) 10,10,10,10,2,1,0.2,0.1,0.1,0.1,0.1,0.1,0.1,0.1,0.1, treatment day 11 | individual Exp. 6-1, 129 days old, total length 40.6 mm at start, c3 onward = treatment days 1,3,5,7,9,10,11,12,13,14,15,16,17,18,19, T4 (nM) 10,10,10,10,2,1,0.2,0.1,0.1,0.1,0.1,0.1,0.1,0.1,0.1, treatment day 12 | individual Exp. 6-1, 129 days old, total length 40.6 mm at start, c3 onward = treatment days 1,3,5,7,9,10,11,12,13,14,15,16,17,18,19, T4 (nM) 10,10,10,10,2,1,0.2,0.1,0.1,0.1,0.1,0.1,0.1,0.1,0.1, treatment day 13 | individual Exp. 6-1, 129 days old, total length 40.6 mm at start, c3 onward = treatment days 1,3,5,7,9,10,11,12,13,14,15,16,17,18,19, T4 (nM) 10,10,10,10,2,1,0.2,0.1,0.1,0.1,0.1,0.1,0.1,0.1,0.1, treatment day 14 | individual Exp. 6-1, 129 days old, total length 40.6 mm at start, c3 onward = treatment days 1,3,5,7,9,10,11,12,13,14,15,16,17,18,19, T4 (nM) 10,10,10,10,2,1,0.2,0.1,0.1,0.1,0.1,0.1,0.1,0.1,0.1, treatment day 15 | individual Exp. 6-1, 129 days old, total length 40.6 mm at start, c3 onward = treatment days 1,3,5,7,9,10,11,12,13,14,15,16,17,18,19, T4 (nM) 10,10,10,10,2,1,0.2,0.1,0.1,0.1,0.1,0.1,0.1,0.1,0.1, treatment day 16 | individual Exp. 6-1, 129 days old, total length 40.6 mm at start, c3 onward = treatment days 1,3,5,7,9,10,11,12,13,14,15,16,17,18,19, T4 (nM) 10,10,10,10,2,1,0.2,0.1,0.1,0.1,0.1,0.1,0.1,0.1,0.1, treatment day 17 | individual Exp. 6-1, 129 days old, total length 40.6 mm at start, c3 onward = treatment days 1,3,5,7,9,10,11,12,13,14,15,16,17,18,19, T4 (nM) 10,10,10,10,2,1,0.2,0.1,0.1,0.1,0.1,0.1,0.1,0.1,0.1, treatment day 18
